Data on five molecules can be found in patent US7674787B2, “Conformationally constrained Smac mimetics and the uses thereof” (The Regents of the University of Michigan, priority 2004, dated 2010).

Usually IC50 stands for the point on the concentration scale where inhibition reaches its midpoint. As usually defined, the Ki is the dissociation constant of the complex between target and ligand, obtained from inhibition or displacement. A high value points to a looser hold on the target. As a reminder, the Kd is the equilibrium constant for the complex coming apart.

For one assay, the system named is MDA-231 cells. The assay is described as follows: Apoptosis by Annexin V-FITC/propidium iodide in MDA-231 cells. Format: cell-based, human. Here is the method: Similar experiments were performed using the breast cancer cell line MDA-231. MDA-231 cells in 6-well plates were treated with SH-102 and CDDP, alone or in combination, for 42 hours. Cells were collected and stained with Annexin V-FITC and propidium iodide. The fluorescence of Annexin V-FITC and propidium iodide of individual cells was analyzed by flow cytometry. 25 μM and 50 μM CDDP induced about 25% and 42% of MDA-231 cells to undergo apoptosis as compared to control cells, respectively (FIG. 22). […] Combination of 25 and 50 μM CDDP and 10 μM SH-102 induced about 35% and 75% apoptosis over control cells, respectively (FIG. 22).

In another assay the test system is Jurkat-XIAP cells. Briefly: Sub-G1 apoptosis in Jurkat cells overexpressing XIAP.
For the next assay, the system named is Jurkat-Bir3 cells. The assay is described as follows: Sub-G1 apoptosis in Jurkat cells expressing XIAP-Bir3.
Another assay relates to PC-3 cells. The assay is described as follows: Apoptosis by Annexin V-FITC staining in PC-3 cells. In kind it is cell-based, human. From the text: SH-97, a peptido-mimetic in which the side chain of alanine has been replaced with an ethyl group and the isoleucine has been replaced with a diphenylmethyl group, was used to test the basic premise. Of note, SH-97 still has two natural amino acids (valine and proline) and one natural peptide bond. […] The experiment used PC-3 cells which express high levels of XIAP and cIAP-1/2 proteins and cisplatin (CDDP) as the chemotherapeutic drug. CDDP is a DNA damaging agent and can effectively induce apoptosis in PC-3 cells and is also a clinically used chemotherapeutic drug for prostate cancer.
PC-3 cells were treated with CDDP, Smac peptides and mimetics alone or in combination for 42 hours and apoptosis was analyzed by Annexin V-FITC staining. […] Combination of 25 μM CDDP and 10 μM or 25 μM SH-97 induced 29.3%±1.9% and 35.8%±0.4% apoptosis over control cells, respectively (FIG. 18A).
Similar experiments were performed with SH-102 (Table 5). PC-3 cells in 6-well plates were treated with SH-102 and CDDP, alone or in combination, for 42 hours. Cells were collected and stained with Annexin V-FITC and propidium iodide. The fluorescence of Annexin V-FITC and propidium iodide of individual cells was analyzed by flow cytometry. […] Combination of 25 μM CDDP and 10 μM SH-102 induced 32% apoptosis over control cells (FIG. 19).
The same experiment was performed using TAXOTERE (docetaxel), another cancer chemotherapeutic drug. PC-3 cells in 6-well plates were treated with SH-102 and TAXOTERE, alone or in combination, for 42 hours. Cells were collected and stained with Annexin V-FITC and propidium iodide. The fluorescence of Annexin V-FITC and propidium iodide of individual cells was analyzed by flow cytometry. […] Combination of 10 μM TAXOTERE and 10 μM SH-102 induced about 18% apoptosis over control cells (FIG. 21).

Assay [1] concerns MDA-435, MDA-468, and T47D cells. The assay is described as follows: Cell growth inhibition, WST-8, breast cancer cell lines. In kind it is cell-based, human. The conditions noted are these: Homo sapiens, 120 h, 5 days, each of the three cell lines. The protocol:
To test the effect of Smac mimetics by themselves in inhibition of cell growth in human cancer cells, SH-102 was administered to three different breast cancer cell lines. MDA-435, MDA-468, and T47D cells were seeded in 96-well plates with increasing concentrations of SH-102, Smac8, or Smac8-C. The cells were then incubated at 37° C. with 5% CO2 for 5 days, followed by detection of cell viability with WST-8 (10% Dojindo solution in IMEM with 10% FCS). OD values at 450 nm with reference at 650 nm were read approximately 3 hours later. Untreated cells were used as 100% growth. […]. […] (FIGS. 26A-26C).
For orientation: Formazan colour is commonly taken as a measure of viable cells.

A further assay addresses XIAP BIR3 (Homo sapiens, UniProt P98170). The assay is described as follows: biochemical.
The subject of assay [2] is BT-549, MDA-MB-231 (subclone 2LMP), MDA-MB-231 (ATCC) and PC-3 cells. Briefly: Cell growth inhibition, WST-8, cancer cell lines. Format: cell-based, human. The protocol:
(§1) To test the effect of [6.3.0] Smac mimetics in inhibition of cell growth in human cancer cells, compounds were administered to several different cancer cell lines. BT-549, MDA-MB-231 (subclone 2LMP), and MDA-MB-231 (ATCC) human breast cancer cells and PC-3 human prostate cancer cells were seeded in 96-well plates with increasing concentrations of the compounds. To assay for the selectivity of the compounds for cancer cells, normal prostate epithelial cells were also tested. The cells were then incubated at 37° C. with 5% CO2 for 5 days, followed by detection of cell viability with WST-8. Untreated cells were used as 100% growth. The compounds tested were SH-109, SH-122 and SH-123 (Table 6).

For assay [3], the system named is normal prostate epithelial cells. The assay is described as follows: Cell growth inhibition, WST-8, normal cells. In kind it is cell-based. The note with it: 5 days. The protocol: as §1
The test system of assay [4] is MDA-MB-231 (subclone 2LMP) breast cancer cells. Briefly: Cell growth inhibition in combination with TRAIL, WST-8. In kind it is cell-based, human. The conditions noted are these: 4 days. The protocol:
To test the ability of SH-122 to enhance the cell growth inhibitory activity of TRAIL, MDA-MB-231 (subclone 2LMP) breast cancer cells were seeded in 96-well plates with various concentrations of TRAIL in the presence of increasing amounts of SH-122. The cells were then incubated at 37° C. with 5% CO2 for 4 days, followed by detection of cell viability with WST-8.

A further assay concerns Jurkat-Vec cells. Briefly: Sub-G1 apoptosis in Jurkat cells with control vector. In kind it is cell-based, human. The conditions noted are these: 10 μM etoposide alone, 15 hours.
For the next assay, the target named is XIAP (Homo sapiens, UniProt P98170). The conditions noted are these: background statement; cited from earlier work.
XIAP, sequence (P98170 whole entry): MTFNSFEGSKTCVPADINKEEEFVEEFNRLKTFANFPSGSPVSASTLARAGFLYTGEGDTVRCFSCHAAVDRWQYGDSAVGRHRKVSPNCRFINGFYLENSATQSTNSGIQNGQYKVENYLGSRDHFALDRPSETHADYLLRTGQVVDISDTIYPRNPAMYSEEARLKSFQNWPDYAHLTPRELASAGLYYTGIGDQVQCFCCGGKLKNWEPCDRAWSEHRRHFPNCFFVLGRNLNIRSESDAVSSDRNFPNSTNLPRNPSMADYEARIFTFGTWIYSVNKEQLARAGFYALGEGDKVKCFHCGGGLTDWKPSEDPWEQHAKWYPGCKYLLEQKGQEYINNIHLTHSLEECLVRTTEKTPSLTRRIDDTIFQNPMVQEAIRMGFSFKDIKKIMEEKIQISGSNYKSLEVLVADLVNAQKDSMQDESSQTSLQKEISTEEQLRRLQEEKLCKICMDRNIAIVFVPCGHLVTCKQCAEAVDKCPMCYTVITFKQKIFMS

XIAP BIR3, sequence (P98170 241-356): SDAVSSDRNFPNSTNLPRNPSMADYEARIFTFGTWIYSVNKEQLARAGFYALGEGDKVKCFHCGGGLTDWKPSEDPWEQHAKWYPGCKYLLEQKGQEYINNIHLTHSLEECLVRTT
Experimental for Jurkat-Vec cells: Data were analyzed to calculate the percentage of sub-G1 cells (apoptotic cells) using CellQuest software (Becton Dickinson).

Turning to `CC[C@H](N)C(=O)N[C@H]1CCC[C@H]2CC[C@@H](C(=O)NC(c3ccccc3)c3ccccc3)N2C1=O` [Compound 34], the “ability to sensitize cells to CDDP” value with MDA-231 cells (10 μM SH-102 compared with 100 μM pSmac8-C) is “as great as that of 100 μM pSmac8-C”. For the same molecule, the “apoptosis over control cells” value was “about 35%” in the assay with MDA-231 cells (25 μM CDDP + 10 μM SH-102, 42 hours); around 75% with MDA-231 cells (50 μM CDDP + 10 μM SH-102, 42 hours); “about 18%” in the assay with PC-3 cells (10 μM TAXOTERE + 10 μM SH-102, 42 hours); 32% with PC-3 cells (25 μM CDDP + 10 μM compound, 42 hours). The “effectiveness in overcoming protective effect of XIAP” value in the assay on Jurkat-XIAP cells (10 μM SH-102 compared with 50 μM Smac8-C) was “at least as effective as 50 μM Smac8-C”. Further, the “apoptosis (sub-G1)” value in the assay with Jurkat-XIAP cells (10 μM SH-102 in combination with etoposide, 15 hours) is recorded as “about 15%”. The figures for the apoptosis entry in the assay on Jurkat-Bir3 cells (etoposide + 10 μM SH-102) and in the assay on Jurkat-Bir3 cells (etoposide + 20 μM SH-102) were “about 25%” and around 30%, respectively. In addition, the “apoptosis compared to untreated cancer cells” value with PC-3 cells (compound alone up to 100 μM, 42 hours) is “did not induce significantly more apoptosis”. In assay [1], this molecule yielded a half-inhibitory concentration (IC50) of 30000 to 70000 nM.
For `CC[C@H](NC)C(=O)N[C@H]1CCCC[C@H]2CC[C@@H](C(=O)NC(c3ccccc3)c3ccccc3)N2C1=O` [SH-122], the Ki at XIAP BIR3 worked out at 30 nM. Moreover, the “cell growth inhibition (in words)” value is on record as “inhibited the cell growth” in assay [2] (5 days, WST-8, each of the cancer cell lines) and “no cell growth inhibition effect” in [3]. Besides, the “rank of potency in cell growth inhibition” value in assay [2] (among SH-109, SH-122, SH-123, each cell line) is “most potent”. Also, the “decrease of the IC50 of TRAIL” value in assay [4] (250 nM SH-122 with TRAIL) is listed as “approximately ten-fold”.
On to `COc1cc([C@@H]2c3cc4c(cc3[C@@H](O[C@@H]3O[C@@H]5CO[C@@H](C)O[C@H]5[C@H](O)[C@H]3O)[C@H]3COC(=O)[C@H]23)OCO4)cc(OC)c1O` [etoposide, reference compound], for which the “apoptotic cells (sub-G1)” value with Jurkat-XIAP cells (10 μM etoposide alone, 15 hours) is “about 10%”; with Jurkat-Vec cells, “about 50%”. Besides, the apoptosis entry in the assay on Jurkat-Bir3 cells (20 μM etoposide alone) was “about 18%”.

B1: TRAIL: tumor necrosis factor-related apoptosis-inducing ligand (protein, UniProt P50591 1-281, looked up)
Tumor necrosis factor ligand …: MAMMEVQGGPSLGQTCVLIVIFTVLLQSLCVAVTYVYFTNELKQMQDKYSKSGIACFLKEDDSYWDPNDEESMNSPCWQVKWQLRQLVRKMILRTSEETISTVQEKQQNISPLVRERGPQRVAAHITGTRGRSNTLSSPNSKNEKALGRKINSWESSRSGHSFLSNLHLRNGELVIHEKGFYYIYSQTYFRFQEEIKENTKNDKQMVQYIYKYTSYPDPILLMKSARNSCWSKDAEYGLYSIYQGGIFELKENDRIFVSVTNEHLIDMDHEASFFGAFLVG
Take B1: in [4] (TRAIL by itself), the “cell growth inhibition (in words)” value was “inhibited the growth of the cells in a dose dependent fashion”.

B2: mature Smac protein: mature Smac protein, endogenous inhibitor of XIAP (protein, UniProt Q9NR28 22-239, looked up)
Diablo IAP-binding …: LCVPVVANFKKRCFSELIRPWHKTVTIGFGVTLCAVPIAQKSEPHSLSSEALMRRAVSLVTDSTSTFLSQTTYALIEAITEYTKAVYTLTSLYRQYTSLLGKMNSEEEDEVWQVIIGARAEMTSKHQEYLKLETTWMTAVGLSEMAAEAAYQTGADQASITARNHIQLVKLQVEEVHQLSRKAETKLAEAQIEELRQKTQEEGEERAESEQEAYLRED
As to B2, in the assay with XIAP, the Kd was 420 nM.
